Assay results taken from patent US7572770B2, “Use of an interleukin 1 receptor antagonist and/or pyrrolidinedithiocarbamate for the treatment or prophylaxis of type 2 diabetes” (University of Zurich, priority 2002, dated 2009).

Key:
[1] = in vivo; cited from earlier work
iNOS = iNOS expression in human islets; format: cell-based; conditions: 33 mM glucose or IL-1β alone, 44 hours
Description: Western blot analysis. Islets were cultured in a culture medium in non-adherent plastic dishes. One day after isolation, the medium was changed and groups of 200 islets were incubated for 44 hours in culture medium containing 5.5 or 33.3 mM glucose without or with 2 ng/ml IL-1β or 500 ng/ml IL-1Ra. At the end of the incubations, islets were washed in PBS, suspended in 50 μl sample buffer containing 125 mM Tris-HCl, pH 6.8, 4% SDS, 10% glycerol, 0.3% bromphenol blue, 1.8% β-mercaptoethanol and boiled for 5 min. Equivalent amounts of each treatment group were run on 15% SDS polyacrylamide gels. […] Intensity of bands was analyzed using Multianalyst™ (Bio Rad, Laboratories inc., Hercules, Calif.).
RNA extraction, RT-PCR and sequencing of RT-PCR product. […] The conditions of the PCR amplification for IL-1β and Fas were: denaturation 30 seconds at 94° C., annealing 30 seconds at 60° C. and elongation 30 seconds at 72° C., followed for real time PCR by quantification 5 seconds at 80° C., 45 cycles. […] For quantitative analysis, we used the Light Cycler quantitative PCR system (Roche, Basel, Switzerland) and performed quantitative PCR with a commercial kit (Light Cycler-DNA Master SYBR Green I; Roche). […]

human islets = test: Insulin release and content of human islets; format: cell-based; conditions: 33.3 mM glucose or IL-1β, 4 days
Description: (§1) Islet isolation and culture. Islets were isolated from pancreases of eleven organ donors at the Department of Surgery, University of Geneva Medical Center, as described (32-34). The islet purity was >95%, as judged by dithizone staining (if this degree of purity was not primarily achieved by routine isolation, islets were handpicked). […] For long-term in vitro studies, the islets were cultured on extracellular matrix-coated plates derived from bovine corneal endothelial cells (Novamed Ltd., Jerusalem, Israel), allowing the cells to attach to the dishes and spread, preserving their functional integrity (7;35). Islets were cultured in CMRL 1066 medium containing 100 U/ml penicillin, 100 μg/ml streptomycin and 10% fetal calf serum (Gibco, Gaithersburg, Md.), hereinafter referred to as culture medium. Two days after plating, when most islets were attached and began to flatten, the medium was changed to culture medium containing 5.5, 11.1 or 33.3 mM glucose. In some experiments, islets were additionally cultured with 2 ng/ml recombinant human IL-1β, 1000 U/ml recombinant human IFNγ (ReproTech EC Ltd, London, UK), 500 ng/ml IL-1β receptor antagonist (IL-1Ra) (R&D Systems Inc., Minneapolis, Minn.), 1 ng/ml membrane bound Fas-ligand (FasL) (36) (upstate biotechnology, Lake Placid, N.Y.) or with 100 μM pyrrolidinedithiocarbamate (PDTC; Sigma; 2 h per 2 d of culture).
Insulin release and content. To determine acute insulin release in response to glucose stimulation, islets were washed in RPMI 1640 medium with 10% FCS and containing 3.3 mM glucose and pre-incubated for 1 h in the same medium. The medium was then discarded and replaced with fresh medium containing 3.3 mM glucose for 1 h for basal secretion, followed by an additional 1 h incubation in medium containing 16.7 mM glucose. Incubates were collected and frozen for insulin assays. […] Insulin was determined by a human insulin RIA kit (CIS bio international, Gif-Sur-Yvette, France).

type II IL-1R = molecular target: T1, type II IL-1R (Homo sapiens, UniProt P27930); conditions: read-out: Kd, binding to type II IL-1R; cited from earlier work
T1 sequence (P27930 14-398): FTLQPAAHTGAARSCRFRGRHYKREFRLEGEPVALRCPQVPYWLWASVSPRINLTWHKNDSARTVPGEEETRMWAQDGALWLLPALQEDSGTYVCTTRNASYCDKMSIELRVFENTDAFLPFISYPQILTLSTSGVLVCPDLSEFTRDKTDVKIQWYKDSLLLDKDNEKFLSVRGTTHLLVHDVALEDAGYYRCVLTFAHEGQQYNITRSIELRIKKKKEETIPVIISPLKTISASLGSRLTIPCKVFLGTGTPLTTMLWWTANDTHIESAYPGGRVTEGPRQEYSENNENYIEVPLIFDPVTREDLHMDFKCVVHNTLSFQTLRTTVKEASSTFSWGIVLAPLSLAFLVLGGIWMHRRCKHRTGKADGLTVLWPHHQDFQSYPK

[2] = test system: diabetes-prone Psammomys obesus; test: Diabetes-prone Psammomys obesus on high-energy diet treated with phlorizin; format: in vivo
Description: Animals. Psammomys obesus of both sexes (age 2.0-3.5 months) from the diabetes-prone and diabetes-resistant lines of the Hebrew University colonies were obtained from Harlan (Jerusalem, Israel). After weaning, diabetes-prone Psammomys obesus were maintained on a low-energy diet containing 2.38 kcal/g (Koffolk, Petach Tikva, Israel) until the start of the experiments, whereas diabetes-resistant Psammomys obesus were maintained on a […] (Weizmann Institute, Rehovot, Israel) to identify animals that develop diabetes and exclude them from the study (˜30-40% of the animals in the diabetes-resistant colony). All non-fasted animals with random blood glucose concentrations <7.8 mmol/l (Glucometer Elite, Bayer Diagnostics, Elkart, Ind.) were considered nondiabetic. Diabetes-prone Psammomys obesus switched to a high-energy diet, received an injection of 0.4 g/kg phlorizin (Sigma) or solvent (40% propylene glycol) every 12 h and were killed after 8 days. Psammomys obesus were anesthetized with ketamine (Ketalar, Park-Davis, Gwent, U.K.) and exsanguinated by cardiac puncture. The pancreas was rapidly removed, and immersion-fixed in 10% phosphate-buffered formalin. The animal studies were approved by the Institutional Animal Care and Use Committee of the Hebrew University and the Hadassah Medical Organization.
Detection of IL-1β expressing β-cells. Pancreases from routine necropsies and pancreases from Psammomys obesus were immersion-fixed in formalin, followed by paraffin embedding. Sections were deparaffinized and rehydrated, and endogenous peroxidase blocked by submersion in 0.3% H2O2 for 15 min. Sections were then incubated in methanol for 4 min. After washing with PBS, cultured islets and isolated β-cells were fixed in 4% paraformaldehyde (30 min, room temperature) followed by permeabilisation with 0.5% triton X-100 (4 min, room temperature). Both tissue sections and cultured cells were double-labeled for IL-1β and insulin by 1 h exposure to 10% bovine serum albumin, followed by incubation (1 h, 37° C.) with mouse anti-IL-1β antibody (1:30 dilution, R&D Systems Inc.). Detection was performed using donkey anti-mouse Cy3 conjugated antibody (1:100 dilution, Jackson). Subsequently, specimens were incubated for 30 min at 37° C. with guinea pig anti-insulin antibody diluted 1:50 (Dako, Carpinteria, Calif.), followed by a 30 min incubation with a 1:20 dilution of fluorescein-conjugated rabbit anti-guinea pig antibody (Dako). For positive control of IL-1β staining, human mononuclear cells were isolated as described previously (37) and exposed for 2 h, 37° C. to 1 μg/ml lipopolysaccharide (Difco, Detroit, Ind.). […]

human islets β-cells = test: β-cell apoptosis (TUNEL) and necrosis (propidium iodide) in human islets; format: cell-based; conditions: 33 mM glucose + exogenous FasL
Description: as §1
β-cell apoptosis. The free 3-OH strand breaks resulting from DNA degradation were detected by the terminal deoxynucleotidyl transferase-mediated dUTP nick-end labeling (TUNEL) technique (38). After washing with PBS, cultured islets were fixed in 4% paraformaldehyde (30 min, room temperature) followed by permeabilisation with 0.5% triton X-100 (4 min, room temperature). The TUNEL assay was performed according to the manufacturer's instructions (In Situ Cell Death Detection Kit, AP; Boehringer Mannheim, Germany). […] The samples were immediately evaluated by fluorescence microscopy for positively stained […] nuclei.

[3] = high-energy diet 8 days, 0.4 g/kg phlorizin every 12 h

## anakinra
[1]
  half-life: 4 to 6 h

## Interleukin-1β [IL-1β]
iNOS
  iNOS mRNA or protein expression: Neither 33 mM glucose nor IL-1β alone induced iNOS mRNA
Human islets
  acute glucose-stimulated insulin release after chronic exposure: abolished acute glucose-stimulated insulin release
Type II IL-1R
  Kd: 0.3 to 2 nM

## O=C(CCc1ccc(O)cc1)c1c(O)cc(O)cc1O[C@@H]1O[C@H](CO)[C@@H](O)[C@H](O)[C@H]1O [phlorizin]
[2]; [3]
  IL-1β expression in β-cells: prevented IL-1β expression
  blood glucose (in words): Normalization of blood glucose
  insulin stores of islets: restored insulin stores
[2]; high-energy diet for 8 days with injections of phlorizin
  blood glucose: 5.6 mM

B1: FasL: membrane bound Fas-ligand (protein, UniProt P48023 1-281, looked up)
chain: MQQPFNYPYPQIYWVDSSASSPWAPPGTVLPCPTSVPRRPGQRRPPPPPPPPPLPPPPPPPPLPPLPLPPLKKRGNHSTGLCLLVMFFMVLVALVGLGLGMFQLFHLQKELAELRESTSQMHTASSLEKQIGHPSPPPEKKELRKVAHLTGKSNSRSMPLEWEDTYGIVLLSGVKYKKGGLVINETGLYFVYSKVYFRGQSCNNLPLSHKVYMRNSKYPQDLVMMEGKMMSYCTTGQMWARSSYLGAVFNLTSADHLYVNVSELSLVNFEESQTFFGLYKL
modifications: full-length
Human islets β-cells
  increase of TUNEL-positive β-cells compared to control at 5.5 mM glucose: 3.0+/−0.4 fold
